Data on one molecule can be found in patent US20050288292A1, “Pharmaceutical formulation and its use in the treatment of inner ear diseases” (priority 2002, published 2005).

Assay [1] deals with muscular tinnitus (myognathic tinnitus). Kind of assay: Intravenous Caroverin in muscular (myognathic) tinnitus. The class given is in vivo. Particulars: intravenous administration. An excerpt:
In addition, new trials by the inventor have shown that Caroverin is not indicated for the treatment of all forms of tinnitus. […] Muscular or myognathic tinnitus is identified by imparting an electrical charge to the chewing musculature, whereby the intensity and frequency of the symptoms of tinnitus can be altered. Myognathic tinnitus can substantially be caused to disappear when the tendon bundles of the middle ear musculature that operates the chain of auditory ossicles are surgically sectioned (tenotomy). The precise mechanism involved in this effect is still unclear.

Assay [2] relates to cochlear post-synaptic tinnitus. Particulars: infusion; according to EP 0 542 689; cited from earlier work.

For `CCN(CC)CCn1c(=O)c(Cc2ccc(OC)cc2)nc2ccccc21` [Caroverin, 1-diethylaminoethyl-3-(p-methoxybenzyl)-1,2-dihydro-quinoxaline-2-one], the “response of muscular (myognathic) tinnitus” value in assay [1] is given as “not responsive”. Besides, the “treatability of cochlear post-synaptic tinnitus” value in assay [2] is on record as “treatable”.
